Activity calls are given as the source filed them.
Columns and labels:
[1] = molecular target: Mitochondrial peptide methionine sulfoxide reductase (Bos taurus, UniProt P54149); format: functional;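 note: absorbance read-out, biochemical high-throughput dose-response screen for MsrA inhibitors, confirmatory; recombinant bovine MsrA coupled to E. coli TrxB with NADPH and selenocystamine; potency is for inhibitors of MsrA activity on DMSO substrate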
Streptococcus = assay: Group A Streptococcus viability loss, dose response, counter-screen for streptokinase expression inhibitor project, luminescence, BacTiterGlo (AID 1915); format: functional, organism-based;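 note: potency for reduction of bacterial viability or growth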
Genome polyprotein = Genome polyprotein (dengue virus type 2, UniProt P29990); assay: Dengue-2 NS5 methyltransferase inhibitors, primary screen, biochemical, confirmation dose response (AID 588689); format: functional
[2] = test system: Streptococcus sp. 'group A'; assay: growth inhibition of control SK(-) GAS strain, dose response, counter-screen for streptokinase expression inhibitor project, luminescence, kanamycin, BacTiterGlo, confirmation (AID 1900); format: functional, organism-based
[3] = molecular target: Photoreceptor-specific nuclear receptor (Homo sapiens, UniProt Q9Y5X4); format: functional, cell-based;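 note: CHO-S cells with Gal4-NCOR and VP16-NR2E3 two-hybrid luciferase reporter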
[4] = molecular target: T1, Histone-lysine N-methyltransferase NSD2 (Homo sapiens, UniProt O96028); format: biochemical
T1 sequence (O96028 whole entry): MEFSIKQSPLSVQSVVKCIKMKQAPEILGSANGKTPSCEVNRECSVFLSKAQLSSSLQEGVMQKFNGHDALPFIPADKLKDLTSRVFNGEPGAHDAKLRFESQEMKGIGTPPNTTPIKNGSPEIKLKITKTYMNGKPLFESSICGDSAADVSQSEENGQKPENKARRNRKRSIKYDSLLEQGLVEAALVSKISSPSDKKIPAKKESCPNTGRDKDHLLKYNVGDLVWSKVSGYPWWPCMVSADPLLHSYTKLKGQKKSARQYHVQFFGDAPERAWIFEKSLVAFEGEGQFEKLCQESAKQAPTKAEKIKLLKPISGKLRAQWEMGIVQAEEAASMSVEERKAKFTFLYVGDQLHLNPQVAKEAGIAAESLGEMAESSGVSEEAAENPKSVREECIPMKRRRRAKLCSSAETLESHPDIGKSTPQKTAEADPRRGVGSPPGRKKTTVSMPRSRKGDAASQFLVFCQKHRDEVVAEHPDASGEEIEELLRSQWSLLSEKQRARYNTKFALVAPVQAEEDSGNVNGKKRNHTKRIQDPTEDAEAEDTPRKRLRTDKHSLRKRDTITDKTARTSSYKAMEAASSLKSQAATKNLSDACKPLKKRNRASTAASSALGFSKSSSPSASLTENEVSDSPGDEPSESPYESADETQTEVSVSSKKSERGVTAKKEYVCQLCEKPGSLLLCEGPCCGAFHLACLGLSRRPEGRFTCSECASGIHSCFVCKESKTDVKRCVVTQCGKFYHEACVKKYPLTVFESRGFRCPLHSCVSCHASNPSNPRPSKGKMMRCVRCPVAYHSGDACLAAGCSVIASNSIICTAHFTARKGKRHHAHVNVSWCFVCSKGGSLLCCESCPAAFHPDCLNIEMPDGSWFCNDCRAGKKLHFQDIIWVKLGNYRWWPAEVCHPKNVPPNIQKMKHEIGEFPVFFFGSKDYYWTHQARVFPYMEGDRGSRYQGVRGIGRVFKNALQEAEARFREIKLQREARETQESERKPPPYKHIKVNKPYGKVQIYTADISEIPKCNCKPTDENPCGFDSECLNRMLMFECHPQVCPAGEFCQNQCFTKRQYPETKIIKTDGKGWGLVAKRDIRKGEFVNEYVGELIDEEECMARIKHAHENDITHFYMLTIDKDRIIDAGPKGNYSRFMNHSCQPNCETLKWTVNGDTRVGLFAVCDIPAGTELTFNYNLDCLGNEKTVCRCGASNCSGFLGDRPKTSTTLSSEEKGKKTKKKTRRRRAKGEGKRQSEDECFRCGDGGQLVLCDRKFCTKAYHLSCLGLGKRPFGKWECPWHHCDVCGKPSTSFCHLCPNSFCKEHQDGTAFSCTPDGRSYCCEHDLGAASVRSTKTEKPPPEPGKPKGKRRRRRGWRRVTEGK

Caspase-3 = molecular target: T2, Caspase-3 (Homo sapiens, UniProt P42574); format: functional;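 note: Dose-response selectivity test against caspase-3 for candidate inhibitors of sentrin-specific proteases (SENPs)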
T2 sequence (P42574 whole entry): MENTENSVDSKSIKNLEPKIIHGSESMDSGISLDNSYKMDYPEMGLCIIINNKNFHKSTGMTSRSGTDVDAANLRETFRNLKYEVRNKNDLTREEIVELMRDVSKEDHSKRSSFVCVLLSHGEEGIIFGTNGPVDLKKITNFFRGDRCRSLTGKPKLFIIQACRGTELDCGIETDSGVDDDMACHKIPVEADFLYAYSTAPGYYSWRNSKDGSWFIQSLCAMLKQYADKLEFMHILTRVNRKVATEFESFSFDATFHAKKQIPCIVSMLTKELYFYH

[5] = molecular target: T3, Serine/threonine-protein phosphatase (Candida dubliniensis (strain CD36 / CBS 7987 / NCPF 3949 / NRRLY-17841) (Yeast), UniProt B9W6M3); assay: calcineurin pathway inhibitors in yeast reporter, dose response, S. cerevisiae, CDRE-lacZ, luminescence, secondary (AID 2388); format: functional, cell-based;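 note: yeast reporter cells carrying a calcineurin-responsive lacZ construct stimulated with calcium chloride; luminescent beta-galactosidase reporter signal in whole cells rather than isolated phosphatase activity; potency for inhibition where a drop in reporter signal means calcineurin blockade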
T3 sequence (B9W6M3 whole entry): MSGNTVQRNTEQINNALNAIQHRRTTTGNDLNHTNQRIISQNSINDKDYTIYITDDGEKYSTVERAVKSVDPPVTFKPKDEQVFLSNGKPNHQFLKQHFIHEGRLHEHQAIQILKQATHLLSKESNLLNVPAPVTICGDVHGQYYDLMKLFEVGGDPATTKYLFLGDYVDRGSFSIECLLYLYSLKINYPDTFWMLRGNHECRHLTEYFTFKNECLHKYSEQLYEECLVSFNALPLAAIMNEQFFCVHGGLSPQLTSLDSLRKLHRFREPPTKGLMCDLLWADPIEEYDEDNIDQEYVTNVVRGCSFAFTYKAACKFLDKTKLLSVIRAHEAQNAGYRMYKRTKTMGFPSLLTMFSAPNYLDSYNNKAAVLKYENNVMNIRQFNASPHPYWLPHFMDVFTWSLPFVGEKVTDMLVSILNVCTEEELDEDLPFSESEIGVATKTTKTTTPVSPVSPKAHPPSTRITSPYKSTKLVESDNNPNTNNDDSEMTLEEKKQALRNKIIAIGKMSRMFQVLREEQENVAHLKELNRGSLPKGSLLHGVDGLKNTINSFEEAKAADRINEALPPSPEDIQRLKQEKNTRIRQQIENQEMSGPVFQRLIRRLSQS

Sequence of Genome polyprotein (P29990 2492-3391 limits assumed): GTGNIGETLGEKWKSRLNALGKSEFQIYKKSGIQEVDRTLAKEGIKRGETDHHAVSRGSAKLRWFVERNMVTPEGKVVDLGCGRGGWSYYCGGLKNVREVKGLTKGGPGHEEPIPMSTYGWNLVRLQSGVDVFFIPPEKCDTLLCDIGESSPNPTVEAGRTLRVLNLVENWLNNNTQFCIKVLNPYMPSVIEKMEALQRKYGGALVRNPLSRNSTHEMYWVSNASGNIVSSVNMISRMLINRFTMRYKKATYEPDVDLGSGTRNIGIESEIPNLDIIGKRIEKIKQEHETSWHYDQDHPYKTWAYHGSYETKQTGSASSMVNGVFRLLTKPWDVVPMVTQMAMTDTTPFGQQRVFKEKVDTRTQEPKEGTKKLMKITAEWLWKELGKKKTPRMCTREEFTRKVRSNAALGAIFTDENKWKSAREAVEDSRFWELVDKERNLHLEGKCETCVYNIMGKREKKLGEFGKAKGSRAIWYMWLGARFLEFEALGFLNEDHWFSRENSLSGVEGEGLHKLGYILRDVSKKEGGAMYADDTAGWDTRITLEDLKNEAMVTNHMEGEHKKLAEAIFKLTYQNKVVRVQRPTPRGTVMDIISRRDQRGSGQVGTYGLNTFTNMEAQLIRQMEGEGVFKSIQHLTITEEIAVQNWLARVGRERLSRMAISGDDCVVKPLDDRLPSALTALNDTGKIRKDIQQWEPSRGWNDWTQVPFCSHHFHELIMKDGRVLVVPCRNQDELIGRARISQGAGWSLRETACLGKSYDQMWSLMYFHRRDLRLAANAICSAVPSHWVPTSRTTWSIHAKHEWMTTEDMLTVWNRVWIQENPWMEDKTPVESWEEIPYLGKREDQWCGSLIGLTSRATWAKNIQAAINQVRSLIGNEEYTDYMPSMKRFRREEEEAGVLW
Sequence of Photoreceptor-specific nuclear receptor (Q9Y5X4 whole entry, the tested form may be a part): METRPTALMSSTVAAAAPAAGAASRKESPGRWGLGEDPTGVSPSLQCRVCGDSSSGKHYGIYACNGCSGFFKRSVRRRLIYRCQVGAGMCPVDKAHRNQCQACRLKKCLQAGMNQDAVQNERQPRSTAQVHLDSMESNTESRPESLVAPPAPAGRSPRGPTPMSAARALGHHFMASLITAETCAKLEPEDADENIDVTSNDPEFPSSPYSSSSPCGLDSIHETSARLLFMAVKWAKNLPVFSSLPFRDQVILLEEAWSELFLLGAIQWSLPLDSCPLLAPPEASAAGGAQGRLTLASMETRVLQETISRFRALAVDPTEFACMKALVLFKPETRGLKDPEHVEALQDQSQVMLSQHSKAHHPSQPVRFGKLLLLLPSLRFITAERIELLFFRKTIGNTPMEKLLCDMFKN
Sequence of Mitochondrial peptide methionine sulfoxide reductase (P54149 whole entry): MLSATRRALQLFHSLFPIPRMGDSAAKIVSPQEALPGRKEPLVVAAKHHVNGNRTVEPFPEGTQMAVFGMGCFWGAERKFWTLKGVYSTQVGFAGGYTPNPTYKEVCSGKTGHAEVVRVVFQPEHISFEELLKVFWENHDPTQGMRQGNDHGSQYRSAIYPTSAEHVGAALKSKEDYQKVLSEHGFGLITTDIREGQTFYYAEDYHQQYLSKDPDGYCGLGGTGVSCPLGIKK

Which results are given for `O=C(O)c1ccc(S(=O)(=O)/N=C2\C=C(Nc3ccccc3F)C(=O)c3ccccc32)cc1`?
IC50 [1]: 14.2 µM (inactive); EC50 (Streptococcus): 4.05 µM (active); IC50 (Genome polyprotein): 11.2 µM (active); EC50 [2]: 5.74 µM (active); IC50 [3]: 12.2 µM (inactive)

Which results are given for `Cc1ccc(NC2=CC(=O)C(=O)c3ccccc32)cc1`?
AC50 [4]: 13 µM (active); IC50 (Caspase-3): 31 µM (active); EC50 [5]: > 180 µM (inactive)

From ChEMBL document CHEMBL1201862, “PubChem BioAssay data set” (2004)
